Structures are written as SMILES. Read-outs that look alike come from different tables or passages of the source. Bounds are passed on as bounds.

Assay [1] deals with T1, Calmodulin (CaM) (Homo sapiens, UniProt P0DP23).
T1 construct: purchased Sigma, St. Louis, Mo
As to conditions: literature; read-out: published Kd values, calmodulin-calcium ion interaction; cited from earlier work.

Assay [2] addresses T1, Calmodulin (CaM). Put plainly: BSI free-solution CaM-Ca^2+ interaction. The settings on record: for Kd: 5 μM CaM, pH 7.5, 25° C. Format: binding. How it is done:
Homogeneous, label-free CaM-Ca^2+ interactions are quantified with BSI by real-time monitoring the sequential reactions of a constant concentration of 5 μM CaM with Ca^2+ solutions increasing in concentrations from 12.5-100 μM (FIG. 24A). Here CaM was buffered at pH=7.5 with 0.1M HEPES and 0.1M KCl, with its concentration held constant at 5 μM. In this aspect, the CaM solution contained a small amount of EGTA to chelate any free Ca^2+. The reactions were carried out in the same microfluidic chip molded in PDMS with the temperature fixed at 25° C. A 5 μM CaM solution and a 100 μM Ca^2+ solution both consisting of excess EGTA (i.e., 400 μM), served as the control.
Kinetic analysis using a single exponential gives rise to a plot of observed rates versus Ca^2+ concentration that is linear. A least squares analysis of the linear plot yields the slope, intercept, and their respective errors. […] Without wishing to be bound by theory, it is believed that the disparity in these two values was due likely to a less than optimal approach to fitting the kinetic data and the RI background present from unreacted ligand, particularly at high concentrations.
These experiments were conducted at 25±0.01° C. maintained by a thermoelectric temperature controller (MELCOR, Trenton, N.J.) coupled to a Peltier device. Binding experiments were monitored in real-time at frequencies ca. 50-100 Hz.
CaM was buffered at a pH=7.5 with 0.1M HEPES and 0.1M KCl with its concentration held constant throughout the experiment at 5 μM. The CaM solution contained a small amount of EGTA to chelate any free Ca^2+. BSI monitored, in real-time, the sequential reactions of 5 μM CaM with concentrations of Ca^2+ ranging from 12.5-100 μM.

In the case of `[Ca+2]` [Ca^2+], the Kd on Calmodulin (CaM) [1] is 1 to 10 µM; on Calmodulin (CaM) [2] (12.5-100 μM Ca^2+, read-out: Kd CaM-Ca^2+, kinetic analysis (observed rates versus Ca^2+ concentration)) it was 3.36 µM; on Calmodulin (CaM) [2] (read-out: Kd CaM-Ca^2+, steady-state values analysed by Prism), 17.8 µM. The “control: change in signal above that observed in the absence of excess EGTA at equivalent concentrations” value at Calmodulin (CaM) [2] (5 μM CaM and 100 μM Ca^2+, both with excess EGTA (400 μM)) is reported as below 3%.
